Results reported in patent publication US20220062273A1, “CONJUGATES OF PATTERN RECOGNITION RECEPTOR AGONISTS” (Ascendis Pharma Oncology Division A/S, priority 2019, published 2022).

Legend:
Type in all cases: in vivo, BALB/C mice
[1] = system: peripheral blood mononuclear cells (PBMC); test: PBMC gene expression (qPCR), 6 hours post-treatment
Procedure: Hydrogels were administered as suspensions in PTP buffer. […] Tumors were excised, weighed and snap frozen. […] For PBMC isolations, approximately 600 μl of whole blood was collected via cardiac puncture. The collected whole blood from each individual mouse was diluted with a 1:1 ratio of pre-warmed PBS supplemented with 2% Fetal Bovine Serum (FBS). Then an equal volume of Histopaque-1083 was added to a new sterile 15 mL conical tube, where the diluted whole blood was layered over the Histopaque-1083. The mixture was then centrifuged at 400 g for 30 minutes. The top plasma layer was discarded, and the white translucent interlayer (mononuclear cells) was carefully transferred to a new sterile centrifuge tube. The mononuclear cells were then washed with PBS supplemented with 2% FBS and then were spun down at 250 g for 10 minutes. […] RNA concentrations were measured using a NanoDrop (ThermoFisher) and then adjusted to […] with RNase-free water. RNA quality was assessed using a NanoDrop (ThermoFisher). […] 200 ng of cDNA was used for quantitative PCR using the RT^2 SYBR Green ROX qPCR Master mix (2X) kit (QIAGEN) following manufacturer's recommendations. […] For each gene, 3 technical replicates were analyzed per biological replicate. Undetermined technical replicate CT values were recorded as zero ΔCT values. 4-5 biological replicates were assessed in total.

[2] = system: CD8+ T cells of CD3+ T cells; test: Flow cytometric profiling of tumor draining lymph nodes; settings: tumor draining lymph node, 7 days after randomization
Procedure: (§1) Hydrogels were administered as suspension in PTP buffer. Some cohorts were further treated with 20 μg human IL-2 (Peprotech, Rocky Hill, N.J.), intraperitoneally (I.P.), twice a day for 5 days. Mice were sacrificed 7 days after randomization (DO). Following sacrifice, tumor draining lymph nodes were isolated from both flanks and were dissociated mechanically to generate a single cell suspension at a cell concentration of 1×10^6 cells per sample. Cell suspensions were centrifuged at 300 g for 5 minutes. Supernatants were discarded and cells were resuspended in FACS buffer with 1 μg/ml Fc-Block and incubated at 4° C. for 10 minutes in the dark. Surface marker antibody mixtures (antibody concentration: 10 μg/mL) in FACS buffer were added to each sample and samples were incubated in the dark at 4° C. for 30 minutes. Cells were centrifuged at 300 g for 5 minutes and supernatants were discarded. Cells were washed and then resuspended with FACS buffer before cytometer collection.
(§2) After collection, FACS data was analyzed using FlowJo Version 10.6.1. Compensation was digitally adjusted using single antibody-stained beads. Samples with less than 90% viability, as determined by LiveDead cell staining, were excluded from the analysis. Cells were defined using the following gating strategy: • 1) Ly-6C^+ antigen presenting cells: FSC-H/FSC-A Singlets/LiveDead^−/CD45^+/CD3^−/CD335^−/Ly-6C^+ • 2) Ly-6C^+ MHCII^+ antigen presenting cells: FSC-H/FSC-A Singlets/LiveDead^−/CD45^+/CD3^−/CD335^−/Ly-6C^+/IA/IE (MHCII)^+ • 3) CD8^+ T cells: FSC-H/FSC-A Singlets/LiveDead^−/CD45^+/CD3^+/CD8 single positive 4) Ly-6C^+ CD8^+ T cells: FSC-H/FSC-A Singlets/LiveDead^−/CD45^+/CD3^+/CD8 single positive/Ly-6C^+

[3] = system: Ly-6C+ T cells of CD8+ T cells; test: as above; settings: tumor draining lymph node, 7 days after randomization
Procedure: as §1, §2

CCOCc1nc2c(N)nc3ccccc3c2n1CC(C)(C)O [Compound 4, Resiquimod]
Il1a Mean (2^ΔΔCT) [1]: 0.41
Frequency of CD8+ T cells of CD3+ T cells, Mean ([2]; injected right flank): 29.23%
Frequency of CD8+ T cells of CD3+ T cells, Mean ([2]; uninjected left flank): 29%
Frequency of Ly-6C+ T cells of CD8+ T cells, Mean ([3]; injected right flank): 53.7%
Frequency of Ly-6C+ T cells of CD8+ T cells, Mean ([3]; uninjected left flank): 48%
